Laboratory results as given in the supplement of paper PMC10878532, “Sperm Toolbox—A selection of small molecules to study human spermatozoa” (PLOS ONE, 2024).
Structures can show the parent of a compound that is named as a salt.

Experiments:
HepG2 = HepG2 toxicity (resazurin), effect normalised to DMSO (DMSO = 0); higher = more features changed / larger toxic effect; details: incubation time: 70h incubation
HeLa [1] = test: HeLa toxicity: nuclei-count effect normalised to DMSO (DMSO = 0); higher = more features changed / larger toxic effect; details: incubation time: 24h incubation
HeLa [2] = test: Cell Painting percent induction (share of features beyond 2 z-scores vs DMSO); higher = more features changed / larger toxic effect; extreme values may be limits of the assay; details: incubation time: 24h incubation
human spermatozoa [3] = test: total motile sperm, percent change vs DMSO (non-capacitating); higher = more of the measured sperm population than DMSO, for viability, fewer PI-positive (dead) cells than DMSO
human spermatozoa [4] = test: viability fold change, 1 - (PI-positive fraction / DMSO median); higher = more of the measured sperm population than DMSO, for viability, fewer PI-positive (dead) cells than DMSO; details: incubation time: 3h, non-capacitating
human spermatozoa [5] = test: progressively motile sperm, percent change vs DMSO (capacitating); higher = more of the measured sperm population than DMSO, for viability, fewer PI-positive (dead) cells than DMSO; details: incubation time: 30min incubation
human spermatozoa [6] = test: hyperactivated motile sperm, percent change vs DMSO (capacitating); higher = more of the measured sperm population than DMSO, for viability, fewer PI-positive (dead) cells than DMSO; details: incubation time: 30min incubation
human spermatozoa [7] = test: change in acrosome-reacted (PNA+) sperm vs DMSO, no agonist (capacitating); higher = more of the measured sperm population than DMSO, for viability, fewer PI-positive (dead) cells than DMSO; details: incubation time: 3h
human spermatozoa [8] = test: acrosome-reacted (PNA+) sperm after agonist cocktail, percent change vs DMSO (capacitating); higher = more of the measured sperm population than DMSO, for viability, fewer PI-positive (dead) cells than DMSO; details: incubation time: 3h, capacitating + agonist cocktail 1h
human spermatozoa [9] = test: progressively motile sperm, percent change vs DMSO (non-capacitating); higher = more of the measured sperm population than DMSO, for viability, fewer PI-positive (dead) cells than DMSO; extreme values may be limits of the assay
[10] = incubation time: 10min incubation, 9.99 µM
[11] = incubation time: 10min incubation, 29.9 µM
[12] = incubation time: 3h incubation, 9.99 µM
[13] = incubation time: 3h incubation, 29.9 µM
[14] = incubation time: 6h incubation, 9.99 µM
[15] = incubation time: 6h incubation, 29.9 µM
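For progressively motile sperm, percent change vs DMSO (non-capacitating) in this document: pooled live human sperm from at least 3 donors, tracked by automated microscopy in 0.5 s time-lapse movies, compounds at 10 and 30 µM, versus median of 16 DMSO wells per plate.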
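For total motile sperm, percent change vs DMSO (non-capacitating) in this document: sperm pooled from at least 3 donors, tracked in 0.5 s time-lapse movies by automated microscopy after 10 min, 3 h or 6 h with compound at 10 or 30 µM.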

Structure (SMILES) | HepG2 toxicity (HepG2; 10 µM) | HepG2 toxicity (HepG2; 30 µM) | HeLa toxicity: nuclei-count effect normalised (HeLa [1]; 9.99 µM) | HeLa toxicity: nuclei-count effect normalised (HeLa [1]; 29.9 µM) | Cell Painting percent induction (HeLa [2]; 9.99 µM) | Cell Painting percent induction (HeLa [2]; 29.9 µM) | total motile sperm (human spermatozoa [3]; [10]) | total motile sperm (human spermatozoa [3]; [11]) | total motile sperm (human spermatozoa [3]; [12]) | total motile sperm (human spermatozoa [3]; [13]) | total motile sperm (human spermatozoa [3]; [14]) | total motile sperm (human spermatozoa [3]; [15]) | viability fold change (human spermatozoa [4]; 9.99 µM) | viability fold change (human spermatozoa [4]; 29.9 µM) | progressively motile sperm (human spermatozoa [5]; 9.99 µM) | progressively motile sperm (human spermatozoa [5]; 29.9 µM) | hyperactivated motile sperm (human spermatozoa [6]; 9.99 µM) | hyperactivated motile sperm (human spermatozoa [6]; 29.9 µM) | change in acrosome-reacted (human spermatozoa [7]; 9.99 µM) | change in acrosome-reacted (human spermatozoa [7]; 29.9 µM) | acrosome-reacted (human spermatozoa [8]; 9.99 µM) | acrosome-reacted (human spermatozoa [8]; 29.9 µM) | progressively motile sperm (human spermatozoa [9]; [10]) | progressively motile sperm (human spermatozoa [9]; [11]) | progressively motile sperm (human spermatozoa [9]; [12]) | progressively motile sperm (human spermatozoa [9]; [13]) | progressively motile sperm (human spermatozoa [9]; [14]) | progressively motile sperm (human spermatozoa [9]; [15])
CC(C)(O)c1ccn2c(-c3ccc(F)c(-c4ccc(F)cc4C#N)c3)cnc2c1F [TP 003] | 3.92% | 16.1% | 15.4% | 27.2% | 0.324% | 2.31% | 1.87% | -0.967% | -7.62% | -8.89% | -7.79% | -10.8% | -1.77 | -1.42 | 12.3% | 2.2% | 59.6% | -58% | 1.9% | 2.84% | 100% | 116% | 41.3% | 34.6% | 73.6% | 57.9% | 96% | 62.3%
C=CC[C@@H]1/C=C(\C)C[C@H](C)C[C@H](OC)[C@H]2O[C@@](O)(C(=O)C(=O)N3CCCC[C@H]3C(=O)O[C@H](/C(C)=C/[C@@H]3CC[C@@H](O)[C@H](OC)C3)[C@H](C)[C@@H](O)CC1=O)[C@H](C)C[C@@H]2OC [Tacrolimus] | -3.53% | 10.6% | -1.94% | 18.1% | 0% | 0.072% | 3.53% | 3.6% | -6.77% | -2.1% | -8.35% | -8.9% | -1.97 | -2.04 | 0.476% | -0.37% | -13.3% | -55.8% | 0.533% | 0.376% | -13.9% | -24% | 5.82% | 0.659% | -17.7% | -17.9% | -13.1% | -20.1%
COc1cc(C)c2c(Oc3cccc(C(F)(F)F)c3)c(OC)cc(NC(C)CCCN)c2n1 (centres undefined) [Tafenoquine] | 103% | 103% | 97.2% | 96.3% | 28.9% | 18% | -17.5% | -74.6% | -71.2% | -90.7% | -79.5% | -92% | -1.97 | -2.48 | -71.9% | -99.9% | -85.5% | -85.1% | 46.7% | 75% | 86.1% | 161% | -20.8% | -94.3% | -85.3% | -100% | -93.7% | -100%
COc1cn(-c2ccc(-n3cccn3)cc2F)nc(-c2ccnn2-c2ccccc2)c1=O [Tak-063] | -4.05% | 8.05% | 6.28% | 2.94% | 1.19% | 3.31% | -3.81% | -3.32% | -11% | -14.9% | -15.5% | -20.7% | -1.78 | -1.87 | 4.06% | 10.1% | 321% | 303% | 0.708% | 0.393% | 114% | 117% | 26.4% | 27.7% | 64.8% | 48.7% | 74.2% | 44%
CCOc1ccccc1OCCN[C@H](C)Cc1ccc(OC)c(S(N)(=O)=O)c1 [Tamsulosin] | -2.54% | 9.76% | -2.07% | 2.87% | 0% | 0% | 4.75% | 4.64% | 1.09% | 4.59% | 2.47% | 0.434% | -0.468 | -0.658 | 7.35% | 14.8% | 26% | 16.1% | 0.811% | 1.12% | 8.46% | 14.3% | 3.42% | 13.4% | 17.3% | 20.7% | 23.6% | 26.5%
O=c1sn(-c2cccc3ccccc23)c(=O)n1Cc1ccccc1 [Tideglusib] | -4.62% | 4.74% | -2.47% | 7.35% | 0.036% | 0% | 2.52% | 3.97% | -5.07% | 0.868% | -6.75% | -2.88% | -1.71 | -1.3 | 9.17% | 6.85% | 17.7% | -11.8% | 0.723% | 0.984% | 5.65% | 6.56% | 4.02% | 2.42% | -2.59% | -0.339% | -4% | -0.265%
Nc1ccc(-c2ccc3ncc4ccc(=O)n(-c5cccc(C(F)(F)F)c5)c4c3c2)cn1 [Torin 2] | 97.2% | 96% | 83.4% | 96.5% | 4.68% | 29.7% | -0.268% | 1.3% | -8.49% | -9.72% | -12.1% | -16.1% | -0.979 | -0.723 | 7.66% | 15.1% | 180% | 16.9% | 1.71% | 1.79% | 116% | 129% | 38.8% | 34.7% | 76.3% | 50.7% | 89.8% | 47.4%
COc1cc2c(cc1OC)-c1c/c(=N\c3c(C)cc(C)cc3C)n(C)c(=O)n1CC2 [Trequinsin hydrochloride] | 11.1% | 40.3% | -1.54% | 27.5% | 0.036% | 0.36% | -3.16% | -4.39% | -11.3% | -17.8% | -12.7% | -22.8% | -1.81 | -1.99 | 8.14% | 16.2% | 192% | 73.7% | 1.55% | 1.58% | 102% | 120% | 33.3% | 28.3% | 76.1% | 48.1% | 76.6% | 44%
O.O.O.OO.OO.[K+].[OH-].[V].c1cnc2c(c1)ccc1cccnc12 [bpV(phen)] | 28.8% |  | 34.3% | 34.7% | 0.793% | 2.7% | 1.25% | 3.48% | -3.57% | -2.96% | -4.6% | -7.01% | -0.0835 | -0.163 | 3.97% | 14.8% | 17.7% | 12.9% | 1.06% | 1.79% | 16.4% | 21% | 6.92% | 8.6% | -1.94% | -6.75% | 3.08% | -21.9%
N=C(N)Nc1nc(-c2ccc(Cl)cc2)cs1 [n-[4-(4-Chlorophenyl)-1,3-thiazol-2-yl]guanidine] | 3.6% | -2.59% | 9.82% | 14.3% | 0% | 0.108% | 0.678% | 2.58% | 1.9% | -3.38% | -0.743% | 0.262% | -0.638 | -0.59 | 10.1% | 17% | 17.5% | 17.3% | 1.42% | 1.64% | 15.2% | 21.5% | 9.51% | 8.48% | 24% | 14.5% | 19.1% | 31%
